Legend:
[1] = xn = mol fraction of the nth substance listed; conditions: x2 = 0; for surface tension liquid-gas: Maximal bubble pressure; for mass density: 100 kPa, Liquid, Vibrating tube method
[2] = Maximal bubble pressure

CCO [ethanol] + CCCC[n+]1ccccc1.N#C[N-]C#N
[1]
Conditions | mass density [kg/m3] | surface tension liquid-gas [mN/m]
288.15 K | 793.91 | 23.3
293.15 K | 789.66 | 22.7
298.15 K | 785.73 | 22.2
303.15 K | 781.05 | 21.6
308.15 K | 776.7 | 21.1
313.15 K | 772.31 | 20.7
318.15 K | 767.88 | 20

CCCO [propan-1-ol] + CCCC[n+]1ccccc1.N#C[N-]C#N
[1]
Conditions | mass density [kg/m3] | surface tension liquid-gas [mN/m]
288.15 K | 807.55 | 24.5
293.15 K | 803.59 | 23.9
298.15 K | 799.58 | 23.4
303.15 K | 795.55 | 23
308.15 K | 791.47 | 22.5
313.15 K | 787.36 | 22.1
318.15 K | 783.2 | 21.6

CCO [ethanol]
[2]
Conditions | surface tension liquid-gas [mN/m]
288.15 K | 23.3
293.15 K | 22.7
298.15 K | 22.2
303.15 K | 21.6
308.15 K | 21.1
313.15 K | 20.7
318.15 K | 20

CC(C)O [propan-2-ol] + CCCC[n+]1ccccc1.N#C[N-]C#N
[1]
Conditions | mass density [kg/m3] | surface tension liquid-gas [mN/m]
288.15 K | 789.41 | 22.2
293.15 K | 785.29 | 21.7
298.15 K | 781.08 | 21.2
303.15 K | 776.81 | 20.8
308.15 K | 772.46 | 20.3
313.15 K | 768.02 | 19.9
318.15 K | 763.48 | 19.4

CC(C)O [propan-2-ol]
[2]
Conditions | surface tension liquid-gas [mN/m]
288.15 K | 22.2
293.15 K | 21.7
298.15 K | 21.2
303.15 K | 20.8
308.15 K | 20.3
313.15 K | 19.9
318.15 K | 19.4

CCCO [propan-1-ol]
[2]
Conditions | surface tension liquid-gas [mN/m]
288.15 K | 24.5
293.15 K | 23.9
298.15 K | 23.4
303.15 K | 23
308.15 K | 22.5
313.15 K | 22.1
318.15 K | 21.6

From the NIST ThermoML archive (doi:10.1016/j.jct.2018.08.004)
